Literature values as cited in patent US20180346745A1, “WATER-BASED INK COMPOSITION FOR INK JET RECORDING AND COLORING MATERIAL LIQUID” (Seiko Epson Corporation, priority 2017, published 2018).

Details: value defined by OECD Test Guideline 107

log P (water-octanol partition coefficient) | SMILES
1.32 | CCCCCCC(O)CO (centres unmarked) [1,2-octane diol]
0.83 | CCCCCOCC(O)CO (centres unmarked) [3-pentyloxy-1,2-propanediol]
0.56 | CCCCOCCOCCO [butyl diglycol]
1.14 | CCCCOCC(C)O (centres unmarked) [propylene glycol monobutyl ether]
0.61 | CCCOCC(C)O (centres unmarked) [propylene glycol monopropyl ether]
